From the NIST ThermoML archive (doi:10.1021/je8000975)
Values joined by “and” are separate entries in the source; they are usually repeats but may differ in a detail not shown here. Equal values may be shown once.

What was measured:
[1] = xn = mol fraction of the nth substance listed; settings: 101 kPa, Liquid
[2] = Liquid; for speed of sound: Sing-around technique in a fixed-path interferometer

COCCOCCO [2-(2-methoxyethoxy)ethanol] + COCCO
[1]
Settings | mass density [kg/m3]
293.15 K, x2 = 0.1005 | 1016.02
293.15 K, x2 = 0.1489 | 1014.09
293.15 K, x2 = 0.1983 | 1012.06
293.15 K, x2 = 0.2003 | 1011.98
293.15 K, x2 = 0.2517 | 1009.77
293.15 K, x2 = 0.2969 | 1007.77
293.15 K, x2 = 0.2993 | 1007.67
293.15 K, x2 = 0.3475 | 1005.45
293.15 K, x2 = 0.3505 | 1005.31
293.15 K, x2 = 0.3985 | 1003.01
293.15 K, x2 = 0.45 | 1000.45
293.15 K, x2 = 0.5003 | 997.85
293.15 K, x2 = 0.5998 | 992.362
293.15 K, x2 = 0.6476 | 989.566
293.15 K, x2 = 0.6993 | 986.398
293.15 K, x2 = 0.7475 | 983.311
293.15 K, x2 = 0.7485 | 983.242
293.15 K, x2 = 0.7971 | 979.992
293.15 K, x2 = 0.8465 | 976.527
293.15 K, x2 = 0.8977 | 972.767
293.15 K, x2 = 0.9483 | 968.858
298.15 K, x2 = 0.0523 | 1013.47
298.15 K, x2 = 0.1027 | 1011.52
298.15 K, x2 = 0.1523 | 1009.54
298.15 K, x2 = 0.1974 | 1007.67
298.15 K, x2 = 0.2507 | 1005.39
298.15 K, x2 = 0.294 | 1003.47
298.15 K, x2 = 0.3472 | 1001.02
298.15 K, x2 = 0.3976 | 998.612
298.15 K, x2 = 0.4502 | 995.991
298.15 K, x2 = 0.4981 | 993.508
298.15 K, x2 = 0.5 | 993.405
298.15 K, x2 = 0.5455 | 990.948
298.15 K, x2 = 0.5989 | 987.943
298.15 K, x2 = 0.6471 | 985.114
298.15 K, x2 = 0.7005 | 981.838
298.15 K, x2 = 0.749 | 978.717
298.15 K, x2 = 0.7983 | 975.395
298.15 K, x2 = 0.846 | 972.046
298.15 K, x2 = 0.8832 | 969.324
298.15 K, x2 = 0.8956 | 968.391
298.15 K, x2 = 0.9483 | 964.311
303.15 K, x2 = 0.0536 | 1008.92
303.15 K, x2 = 0.1018 | 1007.06
303.15 K, x2 = 0.15 | 1005.13
303.15 K, x2 = 0.2011 | 1003.02
303.15 K, x2 = 0.2499 | 1000.92
303.15 K, x2 = 0.2515 | 1000.85
303.15 K, x2 = 0.301 | 998.636
303.15 K, x2 = 0.3527 | 996.24
303.15 K, x2 = 0.3986 | 994.036
303.15 K, x2 = 0.4493 | 991.5
303.15 K, x2 = 0.5028 | 988.711
303.15 K, x2 = 0.5499 | 986.158
303.15 K, x2 = 0.6 | 983.323
303.15 K, x2 = 0.6482 | 980.488
303.15 K, x2 = 0.6941 | 977.672
303.15 K, x2 = 0.7485 | 974.182
303.15 K, x2 = 0.7979 | 970.854
303.15 K, x2 = 0.8989 | 963.546
303.15 K, x2 = 0.9476 | 959.766

CCCOCCO [2-propoxyethanol] + CCCCOCCCC
[1]
Settings | mass density
293.15 K, x1 = 0.0625 | 774.485 kg/m3
293.15 K, x1 = 0.1231 | 780.612 kg/m3
293.15 K, x1 = 0.1827 | 786.927 kg/m3
293.15 K, x1 = 0.2394 | 793.199 kg/m3
293.15 K, x1 = 0.2492 | 794.319 kg/m3
293.15 K, x1 = 0.2944 | 799.55 kg/m3
293.15 K, x1 = 0.2949 | 799.613 kg/m3
293.15 K, x1 = 0.3486 | 806.069 kg/m3
293.15 K, x1 = 0.4023 | 812.805 kg/m3
293.15 K, x1 = 0.4544 | 819.603 kg/m3
293.15 K, x1 = 0.4567 | 819.921 kg/m3
293.15 K, x1 = 0.5556 | 833.65 kg/m3
293.15 K, x1 = 0.599 | 840.02 kg/m3
293.15 K, x1 = 0.6019 | 840.448 kg/m3
293.15 K, x1 = 0.6498 | 847.778 kg/m3
293.15 K, x1 = 0.6536 | 848.363 kg/m3
293.15 K, x1 = 0.7431 | 862.909 kg/m3
293.15 K, x1 = 0.8304 | 878.188 kg/m3
293.15 K, x1 = 0.8329 | 878.643 kg/m3
293.15 K, x1 = 0.875 | 886.46 kg/m3
293.15 K, x1 = 0.9173 | 894.637 kg/m3
293.15 K, x1 = 0.9567 | 902.506 kg/m3
293.15 K, x1 = 0.9568 | 902.528 kg/m3
298.15 K, x1 = 0.0551 | 769.407 kg/m3
298.15 K, x1 = 0.0626 | 770.132 kg/m3
298.15 K, x1 = 0.1039 | 774.248 kg/m3
298.15 K, x1 = 0.1246 | 776.381 kg/m3
298.15 K, x1 = 0.1556 | 779.622 kg/m3
298.15 K, x1 = 0.2367 | 788.484 kg/m3
298.15 K, x1 = 0.2393 | 788.779 kg/m3
298.15 K, x1 = 0.2922 | 794.872 kg/m3
298.15 K, x1 = 0.3545 | 802.367 kg/m3
298.15 K, x1 = 0.4014 | 808.252 kg/m3
298.15 K, x1 = 0.4031 | 808.491 kg/m3
298.15 K, x1 = 0.455 | 815.247 kg/m3
298.15 K, x1 = 0.5006 | 821.438 kg/m3
298.15 K, x1 = 0.5043 | 821.944 kg/m3
298.15 K, x1 = 0.5521 | 828.692 kg/m3
298.15 K, x1 = 0.6483 | 843.112 kg/m3
298.15 K, x1 = 0.6976 | 850.944 kg/m3
298.15 K, x1 = 0.6984 | 851.074 kg/m3
298.15 K, x1 = 0.6993 | 851.218 kg/m3
298.15 K, x1 = 0.7502 | 859.679 kg/m3
298.15 K, x1 = 0.7902 | 866.584 kg/m3
298.15 K, x1 = 0.8325 | 874.153 kg/m3 and 874.166 kg/m3
298.15 K, x1 = 0.9152 | 889.815 kg/m3
298.15 K, x1 = 0.9163 | 890.027 kg/m3
298.15 K, x1 = 0.9571 | 898.214 kg/m3
298.15 K, x1 = 0.9581 | 898.407 kg/m3
303.15 K, x1 = 0.0645 | 765.959 kg/m3
303.15 K, x1 = 0.1249 | 772.015 kg/m3
303.15 K, x1 = 0.1826 | 778.083 kg/m3
303.15 K, x1 = 0.2383 | 784.22 kg/m3 and 784.216 kg/m3
303.15 K, x1 = 0.3481 | 797.121 kg/m3
303.15 K, x1 = 0.4032 | 804.021 kg/m3
303.15 K, x1 = 0.4542 | 810.67 kg/m3
303.15 K, x1 = 0.4567 | 810.994 kg/m3
303.15 K, x1 = 0.5058 | 817.67 kg/m3
303.15 K, x1 = 0.5547 | 824.595 kg/m3
303.15 K, x1 = 0.5548 | 824.612 kg/m3
303.15 K, x1 = 0.5997 | 831.213 kg/m3
303.15 K, x1 = 0.6542 | 839.567 kg/m3
303.15 K, x1 = 0.6988 | 846.673 kg/m3
303.15 K, x1 = 0.7434 | 854.06 kg/m3
303.15 K, x1 = 0.7899 | 862.072 kg/m3
303.15 K, x1 = 0.8319 | 869.613 kg/m3
303.15 K, x1 = 0.8764 | 877.879 kg/m3
303.15 K, x1 = 0.9168 | 885.687 kg/m3 and 885.692 kg/m3
303.15 K, x1 = 0.9553 | 893.42 kg/m3
303.15 K, x1 = 0.9575 | 893.858 kg/m3

COCCOCCO [2-(2-methoxyethoxy)ethanol]
[2]
Settings | mass density [kg/m3] | speed of sound [m/s]
293.15 K | 1019.81 | 1432.4
298.15 K | 1015.41 | 1415.2
303.15 K | 1010.91 | 1397.9

CCCCOCCO [2-butoxyethan-1-ol]
[2]
Settings | mass density [kg/m3] | speed of sound [m/s]
293.15 K | 900.094 | 1322.5
298.15 K | 895.91 | 1304.9
303.15 K | 891.697 | 1288

CCOCCO [2-ethoxyethan-1-ol]
[2]
Settings | mass density [kg/m3] | speed of sound [m/s]
293.15 K | 929.545 | 1319.9
298.15 K | 925.027 | 1301.7
303.15 K | 920.457 | 1284.2
